Columns and labels:
Assay type in all cases: functional
[1] = system: Bifidobacterium adolescentis; test: Antibacterial activity against Bifidobacterium adolescentis by CLSI M11-A6 agar dilution method in presence of beta-lactamase inhibitor Sulbactam
[2] = system: Clostridium scindens; test: Antibacterial activity against Clostridium scindens by CLSI M11-A6 agar dilution method in presence of beta-lactamase inhibitor Sulbactam
[3] = system: Holdemania filiformis; test: Antibacterial activity against Holdemania filiformis by CLSI M11-A6 agar dilution method in presence of beta-lactamase inhibitor Sulbactam
[4] = system: Ruminococcus obeum; test: Antibacterial activity against Ruminococcus obeum by CLSI M11-A6 agar dilution method in presence of beta-lactamase inhibitor Sulbactam; details: Blautia obeum
[5] = system: [Clostridium] innocuum; test: Antibacterial activity against Clostridium innocuum by CLSI M11-A6 agar dilution method in presence of beta-lactamase inhibitor Sulbactam
[6] = system: Prevotella melaninogenica; test: Antibacterial activity against Prevotella melaninogenica by CLSI M11-A6 agar dilution method in presence of beta-lactamase inhibitor Sulbactam

## CC1(C)S[C@@H]2[C@H](NC(=O)[C@H](N)c3ccccc3)C(=O)N2[C@H]1C(=O)O [AMPICILLIN]
[1]
  MIC50: 0.25 µg/mL
  MIC90: 1 µg/mL
[2]
  MIC50: 0.25 µg/mL
  MIC90: 1 µg/mL
[3]
  MIC50: 0.25 µg/mL
  MIC90: 1 µg/mL
[4]
  MIC50: ≤ 0.12 µg/mL
  MIC90: 0.25 µg/mL
[5]
  MIC50: 0.5 µg/mL
  MIC90: 0.5 µg/mL
[6]
  MIC50: ≤ 0.12 µg/mL
  MIC90: 2 µg/mL

Reference: ChEMBL document CHEMBL1671662, “In vitro activities of telavancin and six comparator agents against anaerobic bacterial isolates” (2009)
